Reference: the supplement of paper PMC10307832

What was measured:
Assay in all cases: relative viability (nuclei count vs DMSO), 5 days (fraction); higher = more cells survive
Ponatinib + Lapatinib = compound: Cc1ccc(C(=O)Nc2ccc(CN3CCN(C)CC3)c(C(F)(F)F)c2)cc1C#Cc1cnc2cccnn12 [Ponatinib] + CS(=O)(=O)CCNCc1ccc(-c2ccc3ncnc(Nc4ccc(OCc5cccc(F)c5)c(Cl)c4)c3c2)o1 [Lapatinib] (partner 2 µM)
How it was run: (§1)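 Dosing by pin tool came one day after lung cancer cell lines were seeded in 1536-well plates, using either one drug or a fixed anchor-drug dose plus five library-drug doses (not always all listed) in √10 steps. After 5 days, nuclei were counted on 4× images. Relative viability is treated-well nuclei count divided by vehicle-well nuclei count, and values are medians of duplicate plates.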

Ponatinib + Pictilisib = compound: Cc1ccc(C(=O)Nc2ccc(CN3CCN(C)CC3)c(C(F)(F)F)c2)cc1C#Cc1cnc2cccnn12 [Ponatinib] + CS(=O)(=O)N1CCN(Cc2cc3nc(-c4cccc5[nH]ncc45)nc(N4CCOCC4)c3s2)CC1 [Pictilisib] (partner 1 µM)
How it was run: as §1

Pazopanib + Lapatinib = compound: Cc1ccc(Nc2nccc(N(C)c3ccc4c(C)n(C)nc4c3)n2)cc1S(N)(=O)=O [Pazopanib] + CS(=O)(=O)CCNCc1ccc(-c2ccc3ncnc(Nc4ccc(OCc5cccc(F)c5)c(Cl)c4)c3c2)o1 [Lapatinib] (partner 2 µM)
How it was run: as §1

Pazopanib + Alpelisib = compound: Cc1ccc(Nc2nccc(N(C)c3ccc4c(C)n(C)nc4c3)n2)cc1S(N)(=O)=O [Pazopanib] + Cc1nc(NC(=O)N2CCC[C@H]2C(N)=O)sc1-c1ccnc(C(C)(C)C(F)(F)F)c1 [Alpelisib] (partner 2 µM)
How it was run: as §1

Cell Line	relative viability (Ponatinib + Lapatinib; first compound 0.002 µM)	relative viability (Ponatinib + Lapatinib; first compound 0.006325 µM)	relative viability (Ponatinib + Lapatinib; first compound 0.06325 µM)	relative viability (Ponatinib + Lapatinib; first compound 0.2 µM)	relative viability (Ponatinib + Pictilisib; first compound 0.002 µM)	relative viability (Ponatinib + Pictilisib; first compound 0.006325 µM)	relative viability (Ponatinib + Pictilisib; first compound 0.06325 µM)	relative viability (Ponatinib + Pictilisib; first compound 0.2 µM)	relative viability (Pazopanib + Lapatinib; first compound 0.01 µM)	relative viability (Pazopanib + Lapatinib; first compound 0.03162 µM)	relative viability (Pazopanib + Lapatinib; first compound 0.1 µM)	relative viability (Pazopanib + Lapatinib; first compound 0.3162 µM)	relative viability (Pazopanib + Lapatinib; first compound 1 µM)	relative viability (Pazopanib + Alpelisib; first compound 0.01 µM)	relative viability (Pazopanib + Alpelisib; first compound 0.03162 µM)	relative viability (Pazopanib + Alpelisib; first compound 0.1 µM)	relative viability (Pazopanib + Alpelisib; first compound 0.3162 µM)	relative viability (Pazopanib + Alpelisib; first compound 1 µM)
HCC-44	0.969	0.903	1.12	1.06	0.69	0.65	0.73	0.628	0.999	1.01	0.962	1.01	1.03	0.664	0.806	0.766	0.74	0.793
HCC-827	0.214	0.186	0.202	0.184	0.952	1.13	0.899	0.854	0.169	0.177	0.122	0.181	0.191	0.949	0.943	1.02	0.944	1.01
NCI-H2405	0.928	1.03	1.08	0.877	0.388	0.574	0.497	0.403	0.922	1.1	1.06	1.31	1.2	0.743	0.787	0.861	1.09	0.838
PC-3 [JPC-3]	0.43	0.45	0.492	0.502	0.653	0.708	0.885	0.875	0.367	0.463	0.493	0.468	0.451	0.965	1.04	1.19	0.991	0.956
NCI-H1651	0.724	0.955	0.896	0.756	0.61	0.728	0.552	0.634	0.76	0.876	0.885	0.857	1.12	0.956	1.08	0.913	0.88	1.13
HARA	0.88	0.887	0.406	0.378	0.443	0.478	0.498	0.296	0.582	0.746	0.58	0.725	0.695	0.82	0.779	0.846	0.818	0.982
NCI-H1650	0.735	0.811	0.636	0.62	0.601	0.722	0.642	0.558	0.693	0.868	0.718	0.82	0.895	–	–	–	–	–
NCI-H1793	0.645	0.786	0.645	0.459	0.335	0.344	0.206	0.356	–	0.705	0.525	0.755	0.852	–	0.687	0.62	0.914	0.732
NCI-H2347	0.951	0.908	0.94	0.93	0.677	0.849	0.692	0.414	0.86	0.971	1.08	0.989	1.02	1.06	1.04	1.08	1.06	1.16
LU99A	0.98	1.13	0.951	0.868	0.303	0.335	0.369	0.329	0.727	0.978	0.992	1.12	1.07	0.428	0.505	0.416	0.517	0.544
NCI-H1355	0.939	0.947	1.17	1.02	0.408	0.59	0.563	0.568	–	0.845	0.93	0.989	1.17	–	0.765	0.99	0.871	0.849
HCC-78	0.74	0.709	0.597	0.63	0.203	0.216	0.214	0.232	0.361	0.658	0.458	0.622	0.924	0.284	0.406	0.3	0.35	0.388
NCI-H1563	0.86	0.856	0.885	0.727	0.546	0.601	0.586	0.599	0.75	1	0.997	1.09	1.16	0.902	0.868	0.978	0.935	0.929
HCC-15	0.797	0.916	0.922	0.901	0.644	0.758	0.823	0.701	0.841	0.789	0.907	0.89	1	0.788	0.931	0.885	0.909	0.986
EKVX	0.222	0.217	0.349	0.234	0.534	0.5	0.625	0.488	0.183	0.213	0.231	0.344	0.297	0.726	0.887	0.923	0.896	1.03
